Measured values reported in patent US20250215012A1, “IKZF2 DEGRADERS AND USES THEREOF” (REGENTS OF THE UNIVERSITY OF MICHIGAN, priority 2022, published 2025).

Molecular target: IKZF2 (Homo sapiens (Human), UniProt Q96SW2+Q9UKS7)
Assay: IKZF2 HiBiT Assay (Jurkat-IKZF2-HiBiT cell line)
Assay type: cell-based
Settings: Jurkat-IKZF2-HiBiT cells, 24 hours; for DC50: read-out: HiBit assay degradation analysis DC50; for Dmax: read-out: HiBit assay degradation analysis Dmax
How it was run: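 Jurkat cells carrying HiBiT-tagged IKZF2 were exposed to serially diluted compound for 24 h at 37 °C. Remaining IKZF2 was measured by Nano-Glo HiBiT lytic luminescence after 10-20 min at room temperature. Signal was normalized to DMSO, and IC50 came from a four-parameter variable-slope fit.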

Chain of IKZF2 (Q9UKS7 whole entry): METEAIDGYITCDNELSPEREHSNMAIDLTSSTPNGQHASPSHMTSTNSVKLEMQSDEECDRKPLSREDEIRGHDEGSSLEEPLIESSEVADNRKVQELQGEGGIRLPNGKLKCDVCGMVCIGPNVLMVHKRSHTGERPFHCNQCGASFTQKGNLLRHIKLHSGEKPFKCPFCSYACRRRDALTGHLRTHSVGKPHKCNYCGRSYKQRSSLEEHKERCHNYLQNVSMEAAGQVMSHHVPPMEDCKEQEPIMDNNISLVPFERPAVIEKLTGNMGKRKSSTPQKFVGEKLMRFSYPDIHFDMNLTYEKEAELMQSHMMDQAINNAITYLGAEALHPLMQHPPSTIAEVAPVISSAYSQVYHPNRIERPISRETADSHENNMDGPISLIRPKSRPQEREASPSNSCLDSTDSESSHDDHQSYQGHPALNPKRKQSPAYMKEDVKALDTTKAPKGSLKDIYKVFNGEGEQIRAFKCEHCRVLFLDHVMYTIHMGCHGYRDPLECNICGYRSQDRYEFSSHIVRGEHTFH
Chain of IKZF2 (Q96SW2 whole entry): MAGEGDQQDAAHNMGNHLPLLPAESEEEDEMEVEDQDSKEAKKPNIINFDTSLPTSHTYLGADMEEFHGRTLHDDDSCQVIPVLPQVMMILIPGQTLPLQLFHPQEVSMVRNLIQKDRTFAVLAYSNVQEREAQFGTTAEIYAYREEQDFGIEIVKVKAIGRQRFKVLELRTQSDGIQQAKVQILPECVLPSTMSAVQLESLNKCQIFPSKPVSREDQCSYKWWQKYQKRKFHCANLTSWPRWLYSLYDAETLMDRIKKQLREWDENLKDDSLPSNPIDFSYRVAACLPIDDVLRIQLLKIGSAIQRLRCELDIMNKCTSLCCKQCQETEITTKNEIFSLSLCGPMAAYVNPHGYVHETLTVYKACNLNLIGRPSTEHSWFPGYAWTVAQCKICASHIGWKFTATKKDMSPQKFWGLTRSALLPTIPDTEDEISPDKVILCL
Chain of IKZF2 (Q16531 whole entry partner): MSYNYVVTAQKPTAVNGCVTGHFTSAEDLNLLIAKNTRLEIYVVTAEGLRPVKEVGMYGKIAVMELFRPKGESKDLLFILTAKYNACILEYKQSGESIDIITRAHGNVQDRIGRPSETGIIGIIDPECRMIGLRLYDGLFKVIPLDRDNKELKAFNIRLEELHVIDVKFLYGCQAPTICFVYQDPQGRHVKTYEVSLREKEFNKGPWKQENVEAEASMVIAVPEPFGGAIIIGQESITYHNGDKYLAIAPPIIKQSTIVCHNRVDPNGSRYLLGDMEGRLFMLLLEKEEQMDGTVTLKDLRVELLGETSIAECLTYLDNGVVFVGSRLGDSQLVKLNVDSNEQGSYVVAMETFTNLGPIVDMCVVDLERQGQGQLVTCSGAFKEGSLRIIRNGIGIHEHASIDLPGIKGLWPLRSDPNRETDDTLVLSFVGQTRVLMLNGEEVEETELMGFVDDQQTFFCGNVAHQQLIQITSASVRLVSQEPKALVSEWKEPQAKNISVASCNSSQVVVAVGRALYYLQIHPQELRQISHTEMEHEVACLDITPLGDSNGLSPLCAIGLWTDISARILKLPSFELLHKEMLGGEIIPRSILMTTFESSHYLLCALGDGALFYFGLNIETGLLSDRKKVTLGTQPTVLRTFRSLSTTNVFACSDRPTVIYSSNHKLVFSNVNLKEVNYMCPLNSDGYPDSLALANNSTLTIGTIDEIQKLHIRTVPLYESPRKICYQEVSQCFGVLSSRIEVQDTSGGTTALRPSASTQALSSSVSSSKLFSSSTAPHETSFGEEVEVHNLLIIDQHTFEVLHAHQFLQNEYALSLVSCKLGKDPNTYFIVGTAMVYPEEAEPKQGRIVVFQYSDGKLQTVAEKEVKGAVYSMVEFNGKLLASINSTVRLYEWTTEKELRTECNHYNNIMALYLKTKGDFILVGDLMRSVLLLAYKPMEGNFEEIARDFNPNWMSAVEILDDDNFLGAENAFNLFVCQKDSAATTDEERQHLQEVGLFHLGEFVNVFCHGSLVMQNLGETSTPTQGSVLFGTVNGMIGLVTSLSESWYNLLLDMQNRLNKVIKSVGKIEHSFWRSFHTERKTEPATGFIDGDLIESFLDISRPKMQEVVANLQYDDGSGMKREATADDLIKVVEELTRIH

SMILES	DC50 [nM]	Dmax [%]
O=C1CCC(N2Cc3c(ccc4c3OCC43CCN(Cc4cnn5c4CCCC5)CC3)C2=O)C(=O)N1 (stereo not shown) [Compound A245, 3-(6-oxo-1′-((4,5,6,7-tetrahydropyrazolo[1,5-a]pyridin-3-yl)methyl)-6,8-dihydro-2H,7H-spiro[furo[2,3-e]isoindole-3,4′-piperidin]-7-yl)piperidine-2,6-dione]	200 to 500	40 to 60
O=C1CCC(N2Cc3c(ccc4c3OCC43CCN(Cc4cccc(-c5cnn(C6CC6)c5)c4)CC3)C2=O)C(=O)N1 (stereo not shown) [Compound A174, 3-(1′-(3-(1-cyclopropyl-1H-pyrazol-4-yl)benzyl)-6-oxo-6,8-dihydro-2H,7H-spiro[furo[2,3-e]isoindole-3,4′-piperidin]-7-yl)piperidine-2,6-dione]	< 50	60 to 80
O=C1CCC(N2Cc3c(ccc4c3OCC43CCN(CC4CCC(c5ccccc5)CC4)CC3)C2=O)C(=O)N1 (stereo not shown) [Compound A89, 3-(6-oxo-1′-((4-phenylcyclohexyl)methyl)-6,8-dihydro-2H,7H-spiro[furo[2,3-e]isoindole-3,4′-piperidin]-7-yl)piperidine-2,6-dione]	50 to 200	60 to 80
O=C1CC[C@H](N2Cc3c(ccc4c3OCC43CCN(Cc4cccc(-c5cc[nH]n5)c4)CC3)C2=O)C(=O)N1 [Compound A290, (S)-3-(1′-(3-(1H-pyrazol-3-yl)benzyl)-6-oxo-6,8-dihydro-2H,7H-spiro[furo[2,3-e]isoindole-3,4′-piperidin]-7-yl)piperidine-2,6-dione]	< 50	60 to 80
O=C1CCC(N2Cc3c(ccc4c3OCC43CCN(Cc4cnn(-c5ccc(Cl)cc5)c4)CC3)C2=O)C(=O)N1 (stereo not shown) [Compound A314, 3-(1′-((1-(4-chlorophenyl)-1H-pyrazol-4-yl)methyl)-6-oxo-6,8-dihydro-2H,7H-spiro[furo[2,3-e]isoindole-3,4′-piperidin]-7-yl)piperidine-2,6-dione]	< 50	60 to 80
Cc1c(-c2cccc(CN3CCC4(CC3)COc3c4ccc4c3CN([C@H]3CCC(=O)NC3=O)C4=O)c2)cnn1C [Compound A284, (S)-3-(1′-(3-(1,5-dimethyl-1H-pyrazol-4-yl)benzyl)-6-oxo-6,8-dihydro-2H,7H-spiro[furo[2,3-e]isoindole-3,4′-piperidin]-7-yl)piperidine-2,6-dione]	< 50	60 to 80
O=C1CC[C@H](N2Cc3c(ccc4c3OCC43CCN(Cc4ccc5c(c4)NC(=O)CC5)CC3)C2=O)C(=O)N1 [Compound A303, 3-(6-oxo-1′-((2-oxo-1,2,3,4-tetrahydroquinolin-7-yl)methyl)-6,8-dihydro-2H,7H-spiro[furo[2,3-e]isoindole-3,4′-piperidin]-7-yl)piperidine-2,6-dione]	200 to 500	60 to 80
O=C1CC[C@H](N2Cc3c(ccc4c3OCC43CCN(Cc4cnn(S(=O)(=O)c5cccc(Cl)c5F)c4)CC3)C2=O)C(=O)N1 [Compound A357, (S)-3-(1′-((1-((3-chloro-2-fluorophenyl)sulfonyl)-1H-pyrazol-4-yl)methyl)-6-oxo-6,8-dihydro-2H,7H-spiro[furo[2,3-e]isoindole-3,4′-piperidin]-7-yl)piperidine-2,6-dione]	–	60 to 80
O=C1CCC(N2Cc3c(ccc4c3OCC43CCN(Cc4cnn(Cc5ccccc5)c4)CC3)C2=O)C(=O)N1 (stereo not shown) [Compound A209, 3-(1′-((1-benzyl-1H-pyrazol-4-yl)methyl)-6-oxo-6,8-dihydro-2H,7H-spiro[furo[2,3-e]isoindole-3,4′-piperidin]-7-yl)piperidine-2,6-dione]	< 50	60 to 80
O=C1CCC(N2Cc3c(ccc4c3OCC43CCN(Cc4cccc5c4COC5)CC3)C2=O)C(=O)N1 (stereo not shown) [Compound A113, 3-(1′-((1,3-dihydroisobenzofuran-4-yl)methyl)-6-oxo-6,8-dihydro-2H,7H-spiro[furo[2,3-e]isoindole-3,4′-piperidin]-7-yl)piperidine-2,6-dione]	< 50	60 to 80
Cn1ccc(-c2cccc(CN3CCC4(CC3)COc3c4ccc4c3CN([C@H]3CCC(=O)NC3=O)C4=O)c2)n1 [Compound A267, (S)-3-(1′-(3-(1-methyl-1H-pyrazol-3-yl)benzyl)-6-oxo-6,8-dihydro-2H,7H-spiro[furo[2,3-e]isoindole-3,4′-piperidin]-7-yl)piperidine-2,6-dione]	< 50	60 to 80
CC(C)Oc1cc(F)ccc1CN1CCC2(CC1)COc1c2ccc2c1CN([C@H]1CCC(=O)NC1=O)C2=O [Compound A361, (S)-3-(1′-(4-fluoro-2-isopropoxybenzyl)-6-oxo-6,8-dihydro-2H,7H-spiro[furo[2,3-e]isoindole-3,4′-piperidin]-7-yl)piperidine-2,6-dione]	> 500	40 to 60
CCn1ncc2ccc(CN3CCC4(CC3)COc3c4ccc4c3CN([C@H]3CCC(=O)NC3=O)C4=O)cc21 [Compound A298, (S)-3-(1′-((1-ethyl-1H-indazol-6-yl)methyl)-6-oxo-6,8-dihydro-2H,7H-spiro[furo[2,3-e]isoindole-3,4′-piperidin]-7-yl)piperidine-2,6-dione]	50 to 200	60 to 80
[2H]C([2H])([2H])n1cc(-c2cccc(CN3CCC4(CC3)COc3c4ccc4c3CN([C@H]3CCC(=O)NC3=O)C4=O)c2)cn1 [Compound A291, (S)-3-(1′-(3-(1-(methyl-d3)-1H-pyrazol-4-yl)benzyl)-6-oxo-6,8-dihydro-2H,7H-spiro[furo[2,3-e]isoindole-3,4′-piperidin]-7-yl)piperidine-2,6-dione]	< 50	60 to 80
COCCn1ncc2c(CN3CCC4(CC3)COc3c4ccc4c3CN(C3CCC(=O)NC3=O)C4=O)cccc21 (stereo not shown) [Compound A343, 3-(1′-((1-(2-methoxyethyl)-1H-indazol-4-yl)methyl)-6-oxo-6,8-dihydro-2H,7H-spiro[furo[2,3-e]isoindole-3,4′-piperidin]-7-yl)piperidine-2,6-dione]	> 500	40 to 60
Cc1cc(CN2CCC3(CC2)COc2c3ccc3c2CN([C@H]2CCC(=O)NC2=O)C3=O)cc(-c2cnn(C3COC3)c2)c1 [Compound A279, (S)-3-(1′-(3-methyl-5-(1-(oxetan-3-yl)-1H-pyrazol-4-yl)benzyl)-6-oxo-6,8-dihydro-2H,7H-spiro[furo[2,3-e]isoindole-3,4′-piperidin]-7-yl)piperidine-2,6-dione]	< 50	60 to 80
O=C1CCC(N2Cc3c(ccc4c3OCC43CCN(Cc4ccc5c(Cl)n[nH]c5c4)CC3)C2=O)C(=O)N1 (stereo not shown) [Compound A142, 3-(1′-((3-chloro-1H-indazol-6-yl)methyl)-6-oxo-6,8-dihydro-2H,7H-spiro[furo[2,3-e]isoindole-3,4′-piperidin]-7-yl)piperidine-2,6-dione]	50 to 200	60 to 80
Cn1cc2c(CN3CCC4(CC3)COc3c4ccc4c3CN(C3CCC(=O)NC3=O)C4=O)cccc2n1 (stereo not shown) [Compound A67, 3-(1′-((2-methyl-2H-indazol-4-yl)methyl)-6-oxo-6,8-dihydro-2H,7H-spiro[furo[2,3-e]isoindole-3,4′-piperidin]-7-yl)piperidine-2,6-dione]	50 to 200	60 to 80
O=C1CC[C@H](N2Cc3c(ccc4c3OCC43CCN(Cc4cccc(-c5cnn(C[C@H]6CCO6)c5)c4)CC3)C2=O)C(=O)N1 [Compound A273, (S)-3-(1′-(3-(1-(((R)-oxetan-2-yl)methyl)-1H-pyrazol-4-yl)benzyl)-6-oxo-6,8-dihydro-2H,7H-spiro[furo[2,3-e]isoindole-3,4′-piperidin]-7-yl)piperidine-2,6-dione]	50 to 200	60 to 80
CC1(C)CCC(CN2CCC3(CC2)COc2c3ccc3c2CN(C2CCC(=O)NC2=O)C3=O)CC1 (stereo not shown) [Compound A19, 3-(1′-((4,4-dimethylcyclohexyl)methyl)-6-oxo-6,8-dihydro-2H,7H-spiro[furo[2,3-e]isoindole-3,4′-piperidin]-7-yl)piperidine-2,6-dione]	> 500	< 40
O=C1CCC(N2Cc3c(ccc4c3OCC43CCN(Cc4ccnc(Cl)c4)CC3)C2=O)C(=O)N1 (stereo not shown) [Compound A250, 3-(1′-((2-chloropyridin-4-yl)methyl)-6-oxo-6,8-dihydro-2H,7H-spiro[furo[2,3-e]isoindole-3,4′-piperidin]-7-yl)piperidine-2,6-dione]	> 500	< 40
O=C1CCC(N2Cc3c(ccc4c3COC43CCN(Cc4cccc(-c5cc[nH]n5)c4)CC3)C2=O)C(=O)N1 (stereo not shown) [Compound A260, 3-(1′-(3-(1H-pyrazol-3-yl)benzyl)-6-oxo-6,8-dihydrospiro[furo[3,4-e]isoindoline-3,4′-piperidin]-7(1H)-yl)piperidine-2,6-dione]	> 500	40 to 60
Cc1c2ccc(CN3CCC4(CC3)COc3c4ccc4c3CN([C@H]3CCC(=O)NC3=O)C4=O)cc2nn1C [Compound A295, (S)-3-(1′-((2,3-dimethyl-2H-indazol-6-yl)methyl)-6-oxo-6,8-dihydro-2H,7H-spiro[furo[2,3-e]isoindole-3,4′-piperidin]-7-yl)piperidine-2,6-dione]	< 50	60 to 80
O=C1CC[C@H](N2Cc3c(ccc4c3OCC43CCN(Cc4ccc5c(c4)NC(=O)C5)CC3)C2=O)C(=O)N1 [Compound A173, (S)-3-(6-oxo-1′-((2-oxoindolin-6-yl)methyl)-6,8-dihydro-2H,7H-spiro[furo[2,3-e]isoindole-3,4′-piperidin]-7-yl)piperidine-2,6-dione]	50 to 200	60 to 80
O=C1CCC(N2Cc3c(ccc4c3OCC43CCN(Cc4csc5ccccc45)CC3)C2=O)C(=O)N1 (stereo not shown) [Compound A185, 3-(1′-(benzo[b]thiophen-3-ylmethyl)-6-oxo-6,8-dihydro-2H,7H-spiro[furo[2,3-e]isoindole-3,4′-piperidin]-7-yl)piperidine-2,6-dione]	< 50	60 to 80
